Active and inactive are the calls of the source. The rule behind the calls is not given here.

This assay has as its system Jurkat NF-kB reporter, TCR-induced, luciferase luminescence. Put plainly: T-cell NF-kB luciferase reporter inhibition – Jurkat cells, luminescence, dose response (AID 489035).
What is called IC50 is the concentration needed to halve the response being measured. On to `O=C(Nc1ccc(Oc2cccnc2)nc1)c1ccc(C(F)(F)F)cc1`, for which the IC50 is > 80 µM (inactive).
For `CCN(CC)c1ccc(/C=N/NC(=O)c2nnn(-c3nonc3N)c2C(C)C)c(O)c1`, the 50% inhibitory concentration (IC50) is 2.02 µM.
The result for `O=C(COc1ccc(C(=O)c2ccccc2)cc1)NCc1ccc(F)cc1` reads 29.2 µM (inactive); that for `CCCCCCCCCCn1ccc(=N)cc1`, 3.84 µM; that for `CCN1/C(=C/C(C)=C/c2sc3ccccc3[n+]2CC)Sc2ccccc21`, 4.63 µM.
In the case of `O=C(Nc1ncc(Cc2ccc(SC(F)F)cc2)s1)c1ccc(OC(F)F)cc1`, the IC50 was 7.42 µM.
With `CSc1nccc(-c2nn(-c3ccc(C)cc3)ccc2=O)n1` the figure was 33.3 µM (inactive); with `Cc1ccc(C)c(CSc2nc3[nH]ncc3c(=O)[nH]2)c1`, 39.2 µM (inactive); with `Cn1ncc2c(N3CCN(c4ccc(Cl)c(Cl)c4)CC3)ncnc21`, 7.55 µM.
With `CCOc1ccccc1NS(=O)(=O)c1ccc(-c2cnc(C3CC3)o2)cc1` the figure was 6.3 µM.
With `CCCC(=O)NC(c1ccccc1Cl)c1ccc2cccnc2c1O` (centres undefined) the figure was 2.81 µM.
In the case of `Cc1ccc(NC(=O)Nc2ccnc(-c3cccnc3)n2)cc1`, the IC50 is 0.84 µM.
The result for `Cc1ccc(O)c(N=Nc2nccs2)c1` reads 1.79 µM.
With `Cc1cc(C(=O)N2CC=C(c3ccccc3)CC2)c2ccccc2n1` the figure was 75.7 µM (inactive).
With `CCOC(=O)c1[nH]c(C)c(C(=O)Nc2ccc(C)cc2C)c1C` the figure was > 80 µM (inactive); with `Cc1ccc(C(=O)Nc2cnc3ccccc3c2)cc1`, 0.37 µM; with `Cc1ccc(C)c(N=Nc2ccc(O)c3ncccc23)c1`, 28.3 µM (inactive).
With `COc1cccc2sc(Nc3nnc(-c4ccccc4Cl)o3)nc12`, the IC50 was > 80 µM (inactive).
The result for `Oc1ccc2ccccc2c1N=Nc1ccccn1` reads 1.96 µM.
The result for `CCOC(=O)c1ccc(NC(=O)Cn2cnc3cc(C)c(C)cc32)cc1` reads > 80 µM (inactive).
The result for `Cc1cccc(NS(=O)(=O)c2ccc(-c3cnc(C4CC4)o3)cc2)c1C` reads 27.6 µM (inactive).
Consider `CSC1=NC(C(Cl)(Cl)Cl)N=C(c2ccc(C)cc2)N1` (centres undefined), for which the IC50 was > 80 µM (inactive).
As to `O=C(Nc1ccc(S(=O)(=O)Nc2ccccc2)cc1)c1ccc(CN2CCOCC2)cc1`, the IC50 was 29.5 µM (inactive).
The result for `CC(C)c1ccc(/C=N/Nc2ccc(C(=O)O)cc2)cc1` reads 4.63 µM.
For `O=C(N[C@@H](Cc1ccccc1)C(=O)CCl)OCc1ccccc1`, the IC50 was 0.54 µM.
With `O=[N+]([O-])c1nn(-c2ccc3c(c2)OCCO3)n(O)c1=Nc1ccccc1` the figure was 1.05 µM.
With `CCCCCCCCCCCCCCCC[n+]1cccc(C(=O)N(CC)CC)c1` the figure was 3.02 µM; with `CCn1cc(C(=O)NC2CCCc3c2cnn3-c2cccc(C)c2C)cn1` (centres undefined), > 80 µM (inactive).
The result for `Cc1ccc(Nc2nc(-c3c(C)nc4ncccn34)cs2)cc1` reads 18.7 µM; that for `CCOC(=O)N=Nc1c2ccccc2c2nc3no[nH]c3nc12`, 0.73 µM; that for `Cc1ccc(-c2nc(-c3ccccn3)no2)cc1`, 2.34 µM.
Take `CCOc1ccccc1C(=O)N1CCN(c2cccc(Cl)c2)CC1`: the IC50 was > 80 µM (inactive).
The result for `COc1cc(-c2noc(C)c2/C=C/c2ccc(OC(C)=O)cc2)cc(OC)c1OC` reads 31.5 µM (inactive).
The result for `Cc1cc(=O)oc2cc(OCC3CC(c4ccccc4Cl)=NO3)ccc12` (centres undefined) reads > 80 µM (inactive).
The result for `CCn1ncc(C2=NOC(C(=O)NCc3ccccc3)C2)c1C` (centres undefined) reads below 0.16 µM.
For the molecule `CCC/C(O)=C1\C(=O)CC(C)(C)CC1=Nc1ccc(OC)cc1OC`, the IC50 is > 80 µM (inactive).
Turning to `O=C(Nc1ccccc1Cl)/C(Cl)=C(\Cl)S(=O)c1ccccc1` (centres undefined), the 50% inhibitory concentration (IC50) was 1.77 µM.
With `Cn1c2c(c(=O)n(C)c1=O)C(C(F)(F)F)(C(F)(F)F)N=C(c1ccc(Cl)cc1)N2` the figure was > 80 µM (inactive).
The result for `COc1cccc(N2CCN(c3ncnc4c3cnn4-c3ccc(C)cc3C)CC2)c1` reads 11 µM; that for `Cc1ccc(-c2cc3c(N=O)c4ccccc4c-3n[nH]2)cc1`, 1.65 µM; that for `COc1ccc(Cl)cc1NC(=O)CN(C)CC(=O)Nc1ccccc1N1CCOCC1`, 41.5 µM (inactive).
With `CCOc1ccc(S(=O)(=O)NCc2ccccn2)cc1NC(=O)c1ccccc1` the figure was > 80 µM (inactive); with `O=C(Nc1nc2ccc(S(=O)(=O)N3CCCC3)cc2s1)C1CCCCC1`, > 80 µM (inactive).
With `C/C(=N\NC(=O)c1ccc(Cl)c(Cl)c1)c1ccccn1`, the IC50 is 1.3 µM.
As for `CCOc1ccc(NC(=O)c2cc3c(C)nc4ccccc4c3o2)cc1`, the IC50 is > 80 µM (inactive).
The result for `O=C(c1ccc(Br)cc1)c1cc([N+](=O)[O-])ccc1N1CCOCC1` reads 64.3 µM (inactive); that for `C=CCOC(=O)c1[nH]c2c(c1C)C(=O)CC(c1ccco1)C2` (centres undefined), > 80 µM (inactive).
With `O=C(Nc1ccc(S(=O)(=O)Nc2ccc(F)cc2)cc1)c1ccc(CN2CCOCC2)cc1` the figure was 40.8 µM (inactive).
With `COc1ccc(NC(=O)/C(Cl)=C(/Cl)S(=O)Cc2ccc(C)cc2)cn1` (centres undefined) the figure was 0.32 µM; with `COc1cc(C2=NOC(C(=O)NCc3ccc(F)cc3)C2)cc(OC)c1OC` (centres undefined), 6.16 µM; with `COc1ccc(OCC(=O)Nc2ccccc2N2CCCCC2)cc1`, > 80 µM (inactive).
Regarding `CN(Cc1ccccc1)C1=CC(=[N+]2CCCCC2)CC(C)(C)C1`, the IC50 is 20.3 µM (inactive).
With `CC(=O)Nc1ccc(S(=O)(=O)N2CCCc3ccccc32)cc1` the figure was > 80 µM (inactive); with `CCc1ccc(N2C(=O)C(Cl)=C(Nc3ccc(C(=O)N4CCCC4)cc3)C2=O)cc1`, 6.33 µM; with `O=c1cc(-c2ccccc2)[nH]c2cc(F)ccc12`, > 80 µM (inactive).
The result for `COC(=O)c1[nH]c2c(c1C)C(=O)CC(c1cccs1)C2` (centres undefined) reads > 80 µM (inactive); that for `CC#CC(=O)N1CCC(n2nccc2NC(=O)c2ccc3c(c2)OCO3)CC1`, > 80 µM (inactive); that for `C=C1C(=O)C=C2CN(C(=O)c3ccccc3)[C@@](Cc3ccc(F)cc3)(C(=O)OC)[C@@H]12`, 0.89 µM.
The result for `CCOc1ccc(Nc2cc(C)nc(-n3nc(C)cc3C)n2)cc1` reads > 80 µM (inactive); that for `Cc1ccc(O)c(NC(=O)c2cc(-c3ccco3)on2)c1`, > 80 µM (inactive); that for `COc1ccc(/C=N/NC(=O)c2[nH]c3ccc(Br)cc3c2-c2ccccc2)cc1`, 1.64 µM.
For the molecule `NS(=O)(=O)c1ccc(Sc2nc3ccccc3s2)c([N+](=O)[O-])c1`, the half-inhibitory concentration (IC50) is 0.79 µM.
The result for `CC(Oc1ccc(Cl)cc1Cl)c1nc(-c2ccc(NC(=O)c3ccncc3)cc2)no1` (centres undefined) reads > 80 µM (inactive); that for `Cn1cc(/C=N/n2cnc3scc(-c4ccc(Cl)cc4)c3c2=O)c2ccccc21`, > 80 µM (inactive); that for `O=C(O)c1ccc(N/N=C/c2ccc3c(c2)OCO3)cc1`, 2.78 µM.
With `C=C1C(=O)O[C@H]2C[C@@H](C)[C@@H]3C=CC(=O)[C@@]3(C)C[C@H]12` the figure was 1.26 µM; with `Cc1nc(Sc2nnnn2C)c2c3c(sc2n1)CCC3`, 5.19 µM.
With `COc1ccccc1NC(=O)c1cnc(Nc2ccccc2OC)c2ccccc12` the figure was > 80 µM (inactive); with `COc1cc(Nc2ccc(C)cc2)c([N+](=O)[O-])nc1[N+](=O)[O-]`, > 80 µM (inactive).
